Experimental data reported in patent publication US10196357B2, “Biaryl compositions and methods for modulating a kinase cascade” (Athenex, Inc., priority 2007, dated 2019).
Like-named read-outs stand apart in the source and are kept apart here.

What was measured:
c-Src 3T3 cells = assay: BrdU cell growth inhibition, c-Src 3T3; format: cell-based, mouse; details: for GI50: c-Src 3T3 (c-Src527F/NIH3T3) cells; for activity at 0.1 µM / activity at 1 µM / activity at 10 µM: NIH3T3, read-out: c-Src 3T3 Growth, % of Control Mean, n = 3; for activity at 0.1 µM: 100 nM
Procedure: (§1) The GI50s for several of the compounds of the invention were assayed as described herein.
The cells were routinely cultured in DMEM supplemented with Fetal Bovine Serum (2.0% v/V), L-glutamine (2 mM) and Sodium Pyruvate (1 mM).
(§2) In the BrdU Assay for cell growth inhibition, quantitation of cell proliferation was based on the measurement of BrdU incorporation during DNA synthesis. The Cell Proliferation ELISA BrdU assay kit (colorimetric) was obtained from Roche Applied Science and performed as per vendor instructions.
(§3) The growth inhibition (GI) is determined from the formula GI=(T0−Tn×100/T0−CONn) where T0 is the BrdU growth of untreated cells at time “0”, Tn is the BrdU growth of treated cells at day “n” and CONn is the control BrdU growth of control cells at day “n”. The GI50 was extrapolated and the data plotted using XL-Fit 4.0 software.
(§4) For 96 well culture plate experiments, c-Src 3T3 medium was supplemented with 10 mM HEPES buffer. HT-29 cells were seeded in standard tissue culture 96-well plates and c-Src 3T3 cells were seeded in 96-well plates coated with Poly-D-lysine (BIOCOAT™). To increase CO2 diffusion, c-Src 3T3 96-well plates were incubated with their lids raised by ˜2 mm using sterile rubber caps.
(§5) Samples were reconstituted in DMSO at 20 mM and intermediate dilutions made using DMEM containing 10% FBS. […] Plates were assayed for BrdU and the data analyzed as above for GI50.
(§6) All compounds were initially prepared as 20 mM DMSO stock solutions and then diluted into buffer for the in vitro tumor growth assays. NG means no cell growth beyond the control and T means the number of cells in the drug treated wells was less than in the control (i.e. net cell loss).

HT29 cell line = assay: BrdU cell growth inhibition, HT29; format: cell-based, human; details: for activity at 0.05 µM / activity at 0.5 µM / activity at 5 µM: HT-29, read-out: HT-29 Growth, % of Control Mean, n = 3; for activity at 0.05 µM: 50 nM; for activity at 0.5 µM: 500 nM
Procedure: as §1
The HT29 cell line is a NCI standard human colon carcinoma cell line.
as §2, §3, §4, §5, §6
Growth Inhibition. […] T1 values≤T0 values were designated as T, cytotoxicity.

[1] = Homo sapiens, HT-29, HT29 (Colon) cells, read-out: GI50

GI50 (HT29 cell line; HT29 (Colon) cells) | GI50 (HT29 cell line; [1]) [nM] | SMILES | GI50 (c-Src 3T3 cells) | activity at 0.1 µM (c-Src 3T3 cells; Mus musculus) [%] | activity at 1 µM (c-Src 3T3 cells; Mus musculus) [%] | activity at 10 µM (c-Src 3T3 cells; Mus musculus) [%] | GI50 (c-Src 3T3 cells; Mus musculus, read-out: GI50) [nM] | activity at 0.05 µM (HT29 cell line; Homo sapiens) [%] | activity at 0.5 µM (HT29 cell line; Homo sapiens) [%] | activity at 5 µM (HT29 cell line; Homo sapiens) [%]
 | 111 | O=C(Cc1ccc(-c2ccc(OCCN3CCOCC3)cc2)cn1)NCc1cccc(F)c1 [KX2-377] |  | < 0 | < 0 | < 0 | 118 | < 0 | < 0 | < 0
 | 375 | CCOc1ccc(-c2ccc(CC(=O)NCc3cc(F)cc(OCC4CCN(C)CC4)c3)nc2)cc1 [KX2-381] |  | 116 | < 0 | < 0 | 914 | 58 | < 0 | < 0
 | 248 | O=C(Cc1ccc(-c2ccc(OCCCN3CCOCC3)cc2)cn1)NCc1cccc(F)c1 [KX2-383] |  |  |  |  | 327 |  |  | 
inactive |  | CCOc1ccc(-c2ccc(CC(=O)NCc3cccc(F)c3)nc2)c(OCCN2CCN(C)CC2)c1 [KX2-384] |  |  |  |  | 1430 |  |  | 
inactive |  | CC(C)COc1cc(F)cc(CNC(=O)Cc2ccc(-c3ccc(OCCN4CCCCC4)cc3)cn2)c1 [KX2-386] |  |  |  |  | 897 |  |  | 
 | 1860 | CC(C)COc1cc(F)cc(CNC(=O)Cc2ccc(-c3ccc(OCCN4CCOCC4)cc3)cn2)c1 [KX2-387] | inactive |  |  |  |  |  |  | 
 | 906 | CCOc1ccc(-c2ccc(CC(=O)NCc3cc(F)cc(N4CCN(C)CC4)c3)nc2)cc1 [KX2-388] |  |  |  |  | > 1600 |  |  | 
inactive |  | CCOc1ccc(-c2ccc(CC(=O)NCc3cccc(F)c3)nc2)c(OCCN2CCCCC2)c1 [KX2-389] | Inactive |  |  |  |  |  |  | 
 | 868 | CN1CCN(CCCOc2ccc(-c3ccc(CC(=O)NCc4cccc(F)c4)nc3)cc2)CC1 [KX2-390] |  |  |  |  | 797 |  |  | 
 | 21 | O=C(Cc1ccc(-c2ccc(OCCN3CCOCC3)cc2F)cn1)NCc1cccc(F)c1 [KX2-392] |  |  |  |  | 13 |  |  | 

More lines, now with the values behind:

SMILES | GI50 (HT29 cell line; HT29 (Colon) cells) | GI50 (HT29 cell line; [1]) [nM] | GI50 (c-Src 3T3 cells) | activity at 0.1 µM (c-Src 3T3 cells; Mus musculus) [%] | activity at 1 µM (c-Src 3T3 cells; Mus musculus) [%] | activity at 10 µM (c-Src 3T3 cells; Mus musculus) [%] | GI50 (c-Src 3T3 cells; Mus musculus, read-out: GI50) [nM] | activity at 0.05 µM (HT29 cell line; Homo sapiens) [%] | activity at 0.5 µM (HT29 cell line; Homo sapiens) [%] | activity at 5 µM (HT29 cell line; Homo sapiens) [%]
O=C(Cc1ccc(-c2ccccc2)c[n+]1[O-])NCc1cccc(F)c1 [KX1-329 N-oxide] | inactive (c-Src 3T3); inactive (HT-29) |  | inactive (c-Src 3T3); inactive (HT-29) |  |  |  |  |  |  | 
CCOc1ccc(-c2ccc(CC(=O)NCc3cccc(F)c3)nc2)cc1 [KX2-359] |  | 45 |  | < 0 | < 0 | < 0 | 34 | < 0 | < 0 | < 0
CCOc1ccccc1-c1ccc(CC(=O)NCc2cccc(F)c2)nc1 [KX2-360] |  |  |  | 106 | < 0 | < 0 |  | 91 | < 0 | < 0
O=C(Cc1ccc(-c2ccc(CN3CCOCC3)cc2)cn1)NCc1cccc(F)c1 [KX2-362] |  | 56 |  | 101 | < 0 | < 0 | 56 | 86 | < 0 | < 0
CC(C)COc1cc(F)cc(CNC(=O)Cc2ccc(-c3ccc(CN4CCOCC4)cc3)cn2)c1 [KX2-363] |  |  |  | 92 | 70 | 100 |  | 92 | 67 | < 0
O=C(Cc1ccc(-c2ccc(CN3CCCCC3)cc2)cn1)NCc1cccc(F)c1 [KX2-364] |  |  |  | 92 | 81 | < 0 |  | 105 | 80 | < 0
CN1CCN(CCOc2ccc(-c3ccc(CC(=O)NCc4cccc(F)c4)nc3)cc2)CC1 [KX2-365] |  | 93 |  | 88 | < 0 | < 0 | 133 | 88 | < 0 | < 0
CC(C)COc1cc(F)cc(CNC(=O)Cc2ccc(-c3ccc(CN4CCCCC4)cc3)cn2)c1 [KX2-366] |  |  |  | 103 | 83 | < 0 |  | 89 | 54 | < 0
CC(C)COc1cc(F)cc(CNC(=O)Cc2ccc(-c3ccc(OCCN4CCN(C)CC4)cc3)cn2)c1 [KX2-367] |  |  |  | 102 | < 0 | < 0 |  | 64 | 6 | < 0
CCOc1ccc(-c2ccc(CC(=O)NCc3cc(F)cc(OCC(C)C)c3)nc2)cc1 [KX2-368] |  |  |  | 99 | 101 | 27 |  | 107 | 70 | < 0
CCOc1ccccc1-c1ccc(CC(=O)NCc2cc(F)cc(OCC(C)C)c2)nc1 [KX2-369] |  |  |  | 100 | 101 | < 0 |  | 87 | 72 | < 0
CC(C)COc1cc(F)cc(CNC(=O)Cc2ccc(-c3ccc(N4CCOCC4)cc3)cn2)c1 [KX2-370] |  |  |  | 104 | 105 | 106 |  | 112 | 93 | 81
CC(C)COc1cc(F)cc(CNC(=O)Cc2ccc(-c3ccc(N4CCCCC4)cc3)cn2)c1 [KX2-371] |  |  |  | 75 | 72 | 16 |  | 98 | 33 | 16
O=C(Cc1ccc(-c2ccc(N3CCCCC3)cc2)cn1)NCc1cccc(F)c1 [KX2-372] |  | 67 |  | < 0 | < 0 | < 0 | 58 | < 0 | < 0 | < 0
CN1CCN(c2ccc(-c3ccc(CC(=O)NCc4cccc(F)c4)nc3)cc2)CC1 [KX2-373] |  | 639 |  | 97 | < 0 | < 0 | 96 | 64 | < 0 | < 0
O=C(Cc1ccc(-c2ccc(OCCCN3CCCCC3)cc2)cn1)NCc1cccc(F)c1 [KX2-374] |  |  |  | 110 | 84 | < 0 |  | 74 | 57 | < 0
O=C(Cc1ccc(-c2ccc(OCCN3CCCCC3)cc2)cn1)NCc1cccc(F)c1 [KX2-375] |  | 354 |  | < 0 | < 0 | < 0 | 206 | 99 | < 0 | < 0
CN1CCN(Cc2ccc(-c3ccc(CC(=O)NCc4cccc(F)c4)nc3)cc2)CC1 [KX2-376] |  | > 400 |  | < 0 | < 0 | < 0 | > 1600 | 96 | 93 | < 0
CCOc1ccc(-c2ccc(CC(=O)NCc3cc(F)cc(OCCN4CCOCC4)c3)nc2)cc1 [KX2-378] |  |  |  | 122 | 107 | 48 |  | 88 | 61 | < 0
CCOc1ccc(-c2ccc(CC(=O)NCc3cc(F)cc(N4CCCCC4)c3)nc2)cc1 [KX2-379] |  |  |  | 106 | 104 | < 0 |  | 89 | 88 | < 0
CCOc1ccc(-c2ccc(CC(=O)NCc3cc(F)cc(OCCN4CCCCC4)c3)nc2)cc1 [KX2-380] |  |  |  | 124 | 119 | < 0 |  | 100 | 50 | < 0
CCOc1ccc(-c2ccc(CC(=O)NCc3cc(F)cc(N4CCOCC4)c3)nc2)cc1 [KX2-382] |  |  |  | 117 | 114 | 103 |  | 80 | 97 | 50
